Experimental data taken from patent US6515000B2, “Fungicidal mixtures based on amide compounds” (BASF Aktiengesellschaft, priority 2000, dated 2003).

Assays:
[1] = tested on: mildew of wheat (Blumeria graminis forma specialis tritici); assay: Action against mildew of wheat (protective spray, wheat seedlings cv. Kanzler); assay type: in vivo; conditions: individual active ingredient, 7 days after inoculation
Method: (§1) The active compounds, separately or together, are formulated as a 10% emulsion in a mixture of 70% by weight of cyclohexanone, 20% by weight of Nekanil® LN (Lutensol® AP6, wetting agent having emulsifying and dispersing action based on ethoxylated alkylphenols) and 10% by weight of Emulphor® EL (Emulan® EL, emulsifier based on ethoxylated fatty alcohols) and diluted with water to the desired concentration.
(§2) Evaluation is carried out by determining the infected leaf areas in percent. These percentages are converted into efficacies. The efficacy (W) is calculated as follows using Abbot's formula: […]
α corresponds to the fungal infection of the treated plants in % and β corresponds to the fungal infection of the untreated (control) plants in % An efficacy of 0 means that the infection level of the treated plants corresponds to that of the untreated control plants; an efficacy of 100 means that the treated plants were not infected.
The expected efficacies of the mixtures of the active compounds were determined using Colby's formula [R. S. Colby, Weeds 15, 20-22 (1967)] and compared with the observed efficacies.
Colby's formula: E×x+y−x·y/100
E expected efficacy, expressed in % of the untreated control, when using the mixture of the active compounds A and B at the concentrations a and b x efficacy, expressed in % of the untreated control, when using active compound A at the concentration a y efficacy, expressed in % of the untreated control, when using active compound B at the concentration b.
Leaves of wheat seedlings of the cultivar “Kanzler”, grown in pots, were sprayed to run-off point with an aqueous formulation of active ingredient which had been prepared using a stock solution comprising 10% of active ingredient, 85% of cyclohexanone and 5% of emulsifier, and 24 hours after the spray coating had dried on, the leaves were dusted with spores of mildew of wheat (Blumeria graminis forma specialis tritici). […] After 7 days, the extent of the development of the mildew was determined visually in % infection of the entire leaf surface. […]

[2] = tested on: mildew of cucumber (Sphaerotheca fuliginea); assay: Action against mildew of cucumber (protective spray, cucumber seedlings cv. Chinesische Schlange); assay type: in vivo; conditions: individual active ingredient, 7 days
Method: as §1, §2
The expected efficacies of the mixtures of the active compounds were determined using Colby's formula [R. S. Colby, Weeds 15, 20-22 (1967)] and compared with the observed efficacies. […]
Leaves of cucumber seedlings of the cultivar “Chinesische Schlange” which had been grown in pots were, at the cotyledon stage, sprayed to run-off point with an aqueous preparation of active ingredient which had been prepared using a stock solution made of 10% active ingredient, 85% of cyclohexanone and 5% of emulsifier. […] The extent of the mildew development was then determined visually in % infection of the cotyledon surface. […]

Substance: dinocap [dinocap (II)]
- Efficacy in % of the untreated control ([1]; 6 ppm in the spray liquor): 10%
- Efficacy in % of the untreated control ([1]; 12.5 ppm in the spray liquor): 10%
- Efficacy in % of the untreated control ([1]; 50 ppm in the spray liquor): 70%
- Efficacy in % of the untreated control ([2]; 6 ppm in the spray liquor): 10%
- Efficacy in % of the untreated control ([2]; 12.5 ppm in the spray liquor): 20%
